This is an account of results in patent US20200392158A1, “INHIBITORS OF LEUCINE RICH REPEAT KINASE 2” (GLAXOSMITHKLINE INTELLECTUAL PROPERTY DEVELOPMENT LIMITED, priority 2017, published 2020).

Each structure is given as a SMILES string.

In experiment [1] the target is T1, full length G2019 human LRRK2 (Homo sapiens, UniProt Q5S007, R50H).
T1 construct: made in house; host or cells: HEK293 6E cells transduced with BacMam virus (virus generated in Sf9 cells)
Description: Full length G2019 human LRRK2 inhibition mass spectrometry assay. The note with it: LRRKtide to phospho-LRRKtide conversion, RapidFire MS, 2 mM ATP. Format: biochemical. Summed up: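 Purified full-length Flag-tagged G2019 LRRK2, ~25 nM, with 25 μM LRRKtide and 2 mM ATP in 50 mM Hepes pH 7.2, 10 mM MgCl2, 150 mM NaCl, 1 h at room temperature. Quenched with formic acid; phospho- and unphosphorylated LRRKtide measured by RapidFire MS. pIC50 from 4-parameter fit of % conversion, 11 points, top 100 μM.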

In experiment [2] the target is T2, LRRK2 kinase in SH-SY5Y cells over-expressing recombinant full length LRRK2 (Homo sapiens, UniProt Q5S007).
T2 construct: A BacMam virus expressing full length recombinant LRRK2 was purchased from Invitrogen; host or cells: SH-SY5Y human neuroblastoma cells transduced with BacMam LRRK2 virus
Description: Recombinant cellular LRRK2 AlphaScreen assay (LRRK2 Ser935 phosphorylation). It counts as cell-based. Particulars: 60 min. In outline: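 SH-SY5Y cells transduced with BacMam full-length LRRK2 (MOI 50) for 24 h, then treated 60 min at 37 °C with compound (11-point 1:4 series, top 10 uM, 0.1% DMSO). Lysates probed by AlphaScreen for pSer935 vs total LRRK2; values fitted to a sigmoidal dose-response model.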
Background: Alpha assays give light when donor and acceptor beads are brought close together.

T1 sequence (Q5S007 with tags, fused parts or gaps R50H): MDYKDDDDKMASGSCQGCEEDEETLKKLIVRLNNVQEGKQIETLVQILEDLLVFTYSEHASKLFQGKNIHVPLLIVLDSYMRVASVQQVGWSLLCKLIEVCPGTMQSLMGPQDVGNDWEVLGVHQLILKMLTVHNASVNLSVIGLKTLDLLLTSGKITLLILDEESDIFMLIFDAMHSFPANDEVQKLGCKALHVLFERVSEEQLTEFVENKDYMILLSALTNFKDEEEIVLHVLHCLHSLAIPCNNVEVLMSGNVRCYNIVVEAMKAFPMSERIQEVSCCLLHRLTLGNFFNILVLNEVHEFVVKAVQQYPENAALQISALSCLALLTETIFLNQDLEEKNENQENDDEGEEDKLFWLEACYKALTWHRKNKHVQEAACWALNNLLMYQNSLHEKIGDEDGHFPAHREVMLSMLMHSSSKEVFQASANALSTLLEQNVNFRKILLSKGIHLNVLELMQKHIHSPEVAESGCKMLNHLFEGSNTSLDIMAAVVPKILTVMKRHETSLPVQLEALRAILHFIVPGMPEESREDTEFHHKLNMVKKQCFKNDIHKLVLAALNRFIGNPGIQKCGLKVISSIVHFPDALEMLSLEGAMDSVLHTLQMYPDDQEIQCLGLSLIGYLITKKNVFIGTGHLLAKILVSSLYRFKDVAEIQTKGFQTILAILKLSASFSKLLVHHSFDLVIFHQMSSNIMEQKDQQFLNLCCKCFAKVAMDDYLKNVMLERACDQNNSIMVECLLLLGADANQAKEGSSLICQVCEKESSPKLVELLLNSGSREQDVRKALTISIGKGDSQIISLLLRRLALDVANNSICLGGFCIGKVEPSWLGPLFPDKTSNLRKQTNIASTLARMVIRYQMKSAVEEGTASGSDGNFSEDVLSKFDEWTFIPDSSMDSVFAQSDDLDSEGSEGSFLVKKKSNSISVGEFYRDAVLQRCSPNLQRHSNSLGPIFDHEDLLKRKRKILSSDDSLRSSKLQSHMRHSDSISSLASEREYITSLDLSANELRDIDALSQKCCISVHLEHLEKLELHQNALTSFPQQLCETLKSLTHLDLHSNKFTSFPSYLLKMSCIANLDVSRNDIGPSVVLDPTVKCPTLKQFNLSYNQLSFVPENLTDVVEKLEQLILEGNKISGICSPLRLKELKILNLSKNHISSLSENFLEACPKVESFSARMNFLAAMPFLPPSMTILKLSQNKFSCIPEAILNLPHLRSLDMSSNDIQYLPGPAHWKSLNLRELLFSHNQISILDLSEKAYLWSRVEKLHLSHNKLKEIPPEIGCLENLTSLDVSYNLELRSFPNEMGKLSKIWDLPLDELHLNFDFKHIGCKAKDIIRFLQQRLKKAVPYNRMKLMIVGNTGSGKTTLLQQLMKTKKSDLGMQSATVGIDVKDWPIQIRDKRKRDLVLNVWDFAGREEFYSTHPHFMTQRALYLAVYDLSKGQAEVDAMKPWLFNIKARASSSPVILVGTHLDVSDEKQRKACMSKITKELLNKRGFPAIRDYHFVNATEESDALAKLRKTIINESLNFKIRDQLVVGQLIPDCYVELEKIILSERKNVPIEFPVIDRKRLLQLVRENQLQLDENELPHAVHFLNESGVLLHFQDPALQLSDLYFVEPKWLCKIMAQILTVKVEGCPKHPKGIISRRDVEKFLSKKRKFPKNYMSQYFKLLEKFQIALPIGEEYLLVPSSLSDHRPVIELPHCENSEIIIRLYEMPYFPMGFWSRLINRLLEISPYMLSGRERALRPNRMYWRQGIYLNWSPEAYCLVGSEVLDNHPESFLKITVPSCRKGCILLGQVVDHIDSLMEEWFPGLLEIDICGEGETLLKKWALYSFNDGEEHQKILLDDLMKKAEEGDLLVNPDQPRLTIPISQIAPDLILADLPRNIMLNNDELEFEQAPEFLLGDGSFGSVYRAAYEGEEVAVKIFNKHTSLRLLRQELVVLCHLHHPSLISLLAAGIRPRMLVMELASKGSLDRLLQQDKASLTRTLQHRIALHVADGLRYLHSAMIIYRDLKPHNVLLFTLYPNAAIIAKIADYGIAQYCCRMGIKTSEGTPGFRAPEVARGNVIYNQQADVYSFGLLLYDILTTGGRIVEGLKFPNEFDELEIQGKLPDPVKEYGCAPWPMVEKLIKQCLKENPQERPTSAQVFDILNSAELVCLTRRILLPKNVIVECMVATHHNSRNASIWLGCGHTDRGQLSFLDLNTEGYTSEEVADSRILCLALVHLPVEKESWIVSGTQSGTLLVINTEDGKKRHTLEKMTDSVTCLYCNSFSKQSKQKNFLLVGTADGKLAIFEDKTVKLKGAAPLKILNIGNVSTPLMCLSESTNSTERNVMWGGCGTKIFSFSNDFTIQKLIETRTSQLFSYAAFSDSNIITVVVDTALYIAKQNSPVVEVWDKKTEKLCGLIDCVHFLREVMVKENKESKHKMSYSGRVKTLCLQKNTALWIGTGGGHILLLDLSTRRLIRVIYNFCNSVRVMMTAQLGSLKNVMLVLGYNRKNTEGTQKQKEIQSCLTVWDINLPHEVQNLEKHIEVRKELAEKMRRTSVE
T2 sequence (Q5S007 whole entry): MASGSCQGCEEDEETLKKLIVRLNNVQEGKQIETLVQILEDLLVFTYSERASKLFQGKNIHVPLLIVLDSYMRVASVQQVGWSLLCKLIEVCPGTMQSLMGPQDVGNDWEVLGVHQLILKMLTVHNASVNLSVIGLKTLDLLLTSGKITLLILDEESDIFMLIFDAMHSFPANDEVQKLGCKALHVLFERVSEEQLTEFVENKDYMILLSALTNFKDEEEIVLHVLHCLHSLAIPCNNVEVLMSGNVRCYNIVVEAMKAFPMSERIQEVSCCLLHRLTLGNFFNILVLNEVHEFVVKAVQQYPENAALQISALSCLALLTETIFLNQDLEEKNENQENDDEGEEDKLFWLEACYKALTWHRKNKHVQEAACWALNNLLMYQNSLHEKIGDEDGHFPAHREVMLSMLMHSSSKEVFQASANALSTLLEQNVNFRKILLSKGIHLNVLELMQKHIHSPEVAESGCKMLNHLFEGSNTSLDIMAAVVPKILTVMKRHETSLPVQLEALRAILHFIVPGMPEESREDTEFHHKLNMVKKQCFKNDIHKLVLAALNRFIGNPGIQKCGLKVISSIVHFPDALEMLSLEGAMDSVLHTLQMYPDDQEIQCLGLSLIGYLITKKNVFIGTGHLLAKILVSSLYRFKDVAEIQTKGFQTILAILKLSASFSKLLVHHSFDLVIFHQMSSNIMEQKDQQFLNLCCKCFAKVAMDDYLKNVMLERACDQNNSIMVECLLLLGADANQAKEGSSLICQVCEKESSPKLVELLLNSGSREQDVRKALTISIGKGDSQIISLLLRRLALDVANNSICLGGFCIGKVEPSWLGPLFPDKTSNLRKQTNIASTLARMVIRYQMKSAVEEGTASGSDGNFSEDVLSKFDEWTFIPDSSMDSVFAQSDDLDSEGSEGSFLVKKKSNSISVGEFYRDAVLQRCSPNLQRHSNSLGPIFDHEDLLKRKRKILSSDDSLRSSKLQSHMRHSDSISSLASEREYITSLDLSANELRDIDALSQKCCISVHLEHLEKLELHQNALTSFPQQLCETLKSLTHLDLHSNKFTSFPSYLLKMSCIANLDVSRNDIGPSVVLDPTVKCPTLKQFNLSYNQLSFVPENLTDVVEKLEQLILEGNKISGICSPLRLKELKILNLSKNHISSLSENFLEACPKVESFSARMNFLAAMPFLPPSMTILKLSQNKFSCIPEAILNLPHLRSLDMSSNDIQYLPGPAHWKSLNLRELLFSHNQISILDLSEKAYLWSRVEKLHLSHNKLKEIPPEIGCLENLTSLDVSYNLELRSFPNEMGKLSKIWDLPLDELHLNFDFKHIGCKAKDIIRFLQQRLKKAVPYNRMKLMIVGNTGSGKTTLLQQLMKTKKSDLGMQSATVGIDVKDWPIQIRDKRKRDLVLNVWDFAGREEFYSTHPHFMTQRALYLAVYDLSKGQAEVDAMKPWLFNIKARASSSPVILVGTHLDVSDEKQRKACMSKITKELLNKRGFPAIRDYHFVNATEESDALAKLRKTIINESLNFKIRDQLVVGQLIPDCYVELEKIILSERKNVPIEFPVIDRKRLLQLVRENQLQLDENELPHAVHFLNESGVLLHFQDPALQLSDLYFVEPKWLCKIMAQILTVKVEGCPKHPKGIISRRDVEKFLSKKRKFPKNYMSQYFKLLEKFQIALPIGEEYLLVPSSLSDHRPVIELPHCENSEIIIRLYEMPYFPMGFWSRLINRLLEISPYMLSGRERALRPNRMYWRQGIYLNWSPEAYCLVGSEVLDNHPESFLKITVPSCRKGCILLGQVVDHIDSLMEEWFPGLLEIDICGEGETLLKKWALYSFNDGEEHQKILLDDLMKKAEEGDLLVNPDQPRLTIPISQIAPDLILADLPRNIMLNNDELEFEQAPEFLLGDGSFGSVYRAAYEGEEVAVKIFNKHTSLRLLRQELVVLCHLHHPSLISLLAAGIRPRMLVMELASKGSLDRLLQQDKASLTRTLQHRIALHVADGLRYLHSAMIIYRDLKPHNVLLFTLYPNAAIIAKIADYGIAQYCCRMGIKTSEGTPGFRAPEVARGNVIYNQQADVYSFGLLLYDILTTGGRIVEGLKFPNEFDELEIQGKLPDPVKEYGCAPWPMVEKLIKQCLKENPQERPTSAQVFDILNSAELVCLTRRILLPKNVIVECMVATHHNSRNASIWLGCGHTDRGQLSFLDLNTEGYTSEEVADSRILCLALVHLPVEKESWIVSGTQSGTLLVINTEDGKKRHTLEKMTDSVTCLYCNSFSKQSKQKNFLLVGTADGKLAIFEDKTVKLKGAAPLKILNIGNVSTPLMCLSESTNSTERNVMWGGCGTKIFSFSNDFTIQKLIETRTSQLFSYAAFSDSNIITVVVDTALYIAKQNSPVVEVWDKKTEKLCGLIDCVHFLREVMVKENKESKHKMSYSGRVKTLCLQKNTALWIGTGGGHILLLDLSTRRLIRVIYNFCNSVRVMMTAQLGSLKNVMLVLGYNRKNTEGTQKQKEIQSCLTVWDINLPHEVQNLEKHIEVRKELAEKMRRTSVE

As for `CCC1CCOc2nn(C3CCOCC3)c(C)c2Nc2ncc(Cl)c(n2)N1` (single isomer, unassigned) [E20, 14-chloro-11-ethyl-4-methyl-5-(oxan-4-yl)-8-oxa-2,5,6,12,16,17-hexaazatricyclo[11.3.1.0^3,7]heptadeca-1(16),3,6,13(17),14-pentaene], the IC50 in experiment [1] and in experiment [2] was not above 0.1 µM in each case.
Take `Cc1c2c(nn1CCN1C[C@@H]3C[C@H]1CO3)OCCCNc1nc(ncc1Cl)N2` (stereo in doubt) [E221, 14-Chloro-4-methyl-5-{2-[(1S,4S)-2-oxa-5-azabicyclo[2.2.1]heptan-5-yl]ethyl}-8-oxa-2,5,6,12,16,17-hexaazatricyclo [11.3.1.0^3,7]heptadeca-1(16),3,6,13(17),14-pentaene]: the IC50 in experiment [1] and in experiment [2] was not above 0.1 µM each time.
Turning to `Cc1c2c(nn1C1CCOCC1)OCC[C@@H](C)Nc1nc(ncc1Cl)N2` [E6, (11R)-14-Chloro-4,11-dimethyl-5-(oxan-4-yl)-8-oxa-2,5,6,12,16,17-hexaazatricyclo [11.3.1.0^3,7]heptadeca-1(16),3,6,13(17),14-pentaene], the IC50 in experiment [1] and in experiment [2] was not above 0.1 µM throughout.
As for `COCCn1nc2c(c1C)Nc1ncc(Cl)c(n1)NCCCO2` [E116, 14-Chloro-5-(2-methoxyethyl)-4-methyl-8-oxa-2,5,6,12,16,17-hexaazatricyclo[11.3.1.0^3,7]heptadeca-1(16),3,6,13(17),14-pentaene], the IC50 in experiment [1] and in experiment [2] was not above 0.1 µM throughout.
With `Cc1c2c(nn1C1CCOC1)OCCCNc1nc(ncc1Cl)N2` (single isomer, unassigned) [E123, 14-chloro-4-methyl-5-(oxolan-3-yl)-8-oxa-2,5,6,12,16,17-hexaazatricyclo[11.3.1.0^3,7]heptadeca-1(16),3,6,13(17), 14-pentaene], the IC50 in experiment [1] and in experiment [2] was not above 0.1 µM each time.
Regarding `Cc1c2c(nn1C(C)C1CCOCC1)OCCC(C)Nc1nc(ncc1Cl)N2` (single isomer, unassigned) [E183, 14-Chloro-4,11-dimethyl-5-[1-(oxan-4-yl)ethyl]-8-oxa-2,5,6,12,16,17-hexaazatricyclo[11.3.1.0^3,7]heptadeca-1(16),3,6,13(17),14-pentaene], the IC50 in experiment [1] and in experiment [2] was not above 0.1 µM each time.
Consider `CCc1c2c(nn1C1CCOCC1)OCC[C@@H](C)Nc1nc(ncc1Cl)N2` [E399, (11R)-14-Chloro-4-ethyl-11-methyl-5-(oxan-4-yl)-8-oxa-2,5,6,12,16,17-hexaazatricyclo[11.3.1.0^3,7]heptadeca-1(16),3,6,13(17),14-pentaene], for which the IC50 in experiment [1] and in experiment [2] was not above 0.1 µM in each case.
Regarding `Cc1c2c(nn1C1COCCC1(F)F)OCCCNc1nc(ncc1Cl)N2` (racemic) [E364, 14-Chloro-5-(4,4-difluorooxan-3-yl)-4-methyl-8-oxa-2,5,6,12,16,17-hexaazatricyclo[11.3.1.0^3,7]heptadeca-1(16),3,6,13(17),14-pentaene], the IC50 in experiment [1] and in experiment [2] was not above 0.1 µM each time.
For the molecule `Cc1[nH]nc2c1Nc1ncc(Cl)c(n1)NCCCO2` [E395, 14-Chloro-4-methyl-8-oxa-2,5,6,12,16,17-hexaazatricyclo [11.3.1.0^3,7]heptadeca-1(16),3,6,13(17),14-pentaene], the IC50 in experiment [1] and in experiment [2] was not above 0.1 µM throughout.
For the molecule `COC1CNc2nc(ncc2Cl)Nc2c(nn(C3CCC(C(F)(F)F)CC3)c2C)OC1` (single isomer, unassigned) [E278, 14-Chloro-10-methoxy-4-methyl-5-[4-(trifluoromethyl)cyclohexyl]-8-oxa-2,5,6,12,16,17-hexaazatricyclo [11.3. 1.0^3,7]heptadeca-1(16),3,6,13(17),14-pentaene], the IC50 in experiment [1] and in experiment [2] was not above 0.1 µM each time.
Consider `Cc1c2c(nn1CCN1C[C@H]3C[C@@H]1CO3)OCCC(C)Nc1nc(ncc1Cl)N2` (single isomer, unassigned) [E208], for which the IC50 in experiment [1] and in experiment [2] was not above 0.1 µM throughout.
As to `Cc1c2c(nn1C1CC(N3CCC(F)(F)C3)C1)OCCCNc1nc(ncc1Cl)N2` (stereo not drawn) [E312, 14-Chloro-5-[3-(3,3-difluoropyrrolidin-1-yl)cyclobutyl]-4-methyl-8-oxa-2,5,6,12,16,17-hexaazatricyclo[11.3.1.0^3,7] heptadeca-1(16),3,6,13(17),14-pentaene], the IC50 (usually the concentration needed to halve the response being measured) in experiment [1] is 100 µM; in experiment [2], not above 0.1 µM.
On to `Cc1c2c(nn1C1CCOCC1)OCCC(C(F)(F)F)Nc1nc(ncc1Cl)N2` (single isomer, unassigned) [E192, 14-Chloro-4-methyl-5-(oxan-4-yl)-11-(trifluoromethyl)-8-oxa-2,5,6,12,16,17-hexaazatricyclo[11.3.1.0^3,7] heptadeca-1(16),3,6,13(17),14-pentaene], for which the IC50 in experiment [1] and in experiment [2] was not above 0.1 µM throughout.
`Clc1cnc2nc1NCCCOc1nn(C3CCOCC3)c(Cl)c1N2` [E13, 4,14-Dichloro-5-(oxan-4-yl)-8-oxa-2,5,6,12,16,17-hexaazatricyclo[11.3.1.0^3,7]heptadeca-1(16),3,6,13(17),14-pentaene]: the IC50 in experiment [1] and in experiment [2] was not above 0.1 µM throughout.
With `C#Cc1cnc2nc1N[C@H](C)CCOc1nn(C3CCOCC3)c(C)c1N2` [E401, (11R)-14-Ethynyl-4,11-dimethyl-5-(oxan-4-yl)-8-oxa-2,5,6,12,16,17-hexaazatricyclo[11.3.1.0^3,7]heptadeca-1(16),3,6,13(17),14-pentaene], the IC50 in experiment [1] and in experiment [2] was not above 0.1 µM each time.
For `Cc1c2c(nn1C1CN(C3COC3)C1)OCC[C@@H](C)Nc1nc(ncc1Cl)N2` [E107, (11R)-14-chloro-4,11-dimethyl-5-[1-(oxetan-3-yl)azetidin-3-yl]-8-oxa-2,5,6,12,16,17-hexaazatricyclo[11.3.1.0^3,7]heptadeca-1(16),3,6,13(17),14-pentaene], the IC50 in experiment [1] and in experiment [2] was not above 0.1 µM throughout.
For the molecule `C[C@@H]1CCOc2nn(C3CCOCC3)c(C(F)(F)F)c2Nc2ncc(Cl)c(n2)N1` [E416, (11R)-14-Chloro-11-methyl-5-(oxan-4-yl)-4-(trifluoromethyl)-8-oxa-2,5,6,12,16,17-hexaazatricyclo[11.3.1.0^3,7]heptadeca-1(16),3,6,13(17),14-pentaene], the IC50 in experiment [1] and in experiment [2] was not above 0.1 µM in each case.
Consider `Cc1c2c(nn1C1CCOCC1)OCCCNc1nc(ncc1Cl)N2` [E1, 14-Chloro-4-methyl-5-(oxan-4-yl)-8-oxa-2,5,6,12,16,17-hexaazatricyclo [11.3.1.0^3,7]heptadeca-1(16),3,6,13(17),14-pentaene], for which the IC50 in experiment [1] and in experiment [2] was not above 0.1 µM each time.
As for `Cc1c2c(nn1C1CCOCC1)OCC(F)C(C)Nc1nc(ncc1Cl)N2` (single isomer, unassigned) [E64, 14-Chloro-10-fluoro-4,11-dimethyl-5-(oxan-4-yl)-8-oxa-2,5,6,12, 16,17-hexaazatricyclo[11.3.1.0^3,7]heptadeca-1(16),3,6,13(17),14-pentaene], the IC50 in experiment [1] and in experiment [2] was not above 0.1 µM throughout.
As to `Cc1c2c(nn1CCN1CCC(F)(F)C1)OCCC(C)Nc1nc(ncc1Cl)N2` (single isomer, unassigned) [E215, 14-Chloro-5-[2-(3,3-difluoropyrrolidin-1-yl)ethyl]-4,11-dimethyl-8-oxa-2,5,6,12,16,17-hexaazatricyclo [11.3.1.0^3,7]heptadeca-1(16),3,6,13(17),14-pentaene], the IC50 in experiment [1] and in experiment [2] was not above 0.1 µM throughout.
Turning to `Cc1c2c(nn1C1CCOCC1)OCCCNc1nc(ncc1C#N)N2` [E69, 4-Methyl-5-(oxan-4-yl)-8-oxa-2,5,6,12,16,17-hexaazatricyclo[11.3.1.0^3,7]heptadeca-1(16),3,6,13(17),14-pentaene-14-carbonitrile], the IC50 in experiment [2] is not above 0.1 µM.
Regarding `COC1CNc2nc(ncc2Cl)Nc2c(nn(C3CCOCC3)c2Cl)OC1` (single isomer, unassigned) [E341, 4,14-Dichloro-10-methoxy-5-(oxan-4-yl)-8-oxa-2,5,6,12,16,17-hexaazatricyclo[11.3.1.0^3,7]heptadeca-1(16),3,6,13(17),14-pentaene], the IC50 in experiment [2] is not above 0.1 µM.
On the same count and under the same terms, in the case of `FC(F)c1c2c(nn1C1CCOCC1)OCCCNc1nc(ncc1C(F)(F)F)N2` [E118, 4-(Difluoromethyl)-5-(oxan-4-yl)-14-(trifluoromethyl)-8-oxa-2,5,6,12,16,17-hexaazatricyclo[11.3.1.0^3,7]heptadeca-1(16),3,6, 13(17),14-pentaene] it was not above 0.1 µM; in that of `Cc1c2c(nn1C(C)(C)C(N)=O)OCCC(C)Nc1nc(ncc1Cl)N2` (single isomer, unassigned) [E42, 2-{14-chloro-4,11-dimethyl-8-oxa-2,5,6,12,16,17-hexaazatricyclo [11.3.1.0^3,7]heptadeca-1(16),3,6,13(17),14-pentaen-5-yl}-2-methylpropanamide], not above 0.1 µM; in that of `Cc1c2c(nn1C1CCN(C3COC3)CC1F)OCCC(C)Nc1nc(ncc1Cl)N2` (single isomer, unassigned) [E96, 14-chloro-5-[3-fluoro-1-(oxetan-3-yl)piperidin-4-yl]-4,11-dimethyl-8-oxa-2,5,6,12,16,17-hexaazatricyclo[11.3.1.0^3,7]heptadeca-1(16),3,6,13(17),14-pentaene], not above 0.1 µM.
